Source: patent publication US11767341B2, “Lincosamide antibiotics and uses thereof” (President and Fellows of Harvard College, priority 2017, dated 2023)
≈ marks a conversion by molar mass, not a printed value. Where two headings read alike, the source gives them in different places.

Experiments:
Assay in all cases: MIC determination
Assay type in all cases: cell-based
[1] = tested on: S. pneumoniae UNT-038, MP-626, TP 160 (mefA); conditions: Streptococcus pneumoniae
K. pneumoniae ATCC 10031 = conditions: Klebsiella pneumoniae, ATCC10031; K. pneumoniae ATCC 10031; read-out: MIC
E. faecalis ATCC 29212 = conditions: Enterococcus faecalis
[2] = tested on: S. pneumoniae UNT-039, MP-627, TP1517 (mefA); conditions: Streptococcus pneumoniae
[3] = tested on: S. pneumoniae TP 1537 (ermB + mefA); conditions: Streptococcus pneumoniae
S. aureus ATCC 29213 = conditions: Staphylococcus aureus, ATCC29213, S. aureus ATCC 29213; read-out: MIC
[4] = tested on: K. pneumoniae IHMA 658692; KPC-2; conditions: Klebsiella pneumoniae
[5] = tested on: S. aureus UNT-120, MP-619, NRS22 (USA 600, GISA); conditions: Staphylococcus aureus
S. pneumoniae ATCC 49619 = conditions: Streptococcus pneumoniae, ATCC49619; S. pneumoniae ATCC 49619; read-out: MIC
[6] = tested on: S. aureus UNT96, NRS710, MP-618 (USA 100, Erythro >8); conditions: Staphylococcus aureus
[7] = tested on: S. aureus BAA-1556 (USA 300); conditions: Staphylococcus aureus
E. coli GUEST131 (NDM-1) = conditions: Escherichia coli
H. influenzae ATCC 49247 = conditions: Haemophilus influenzae, ATCC49247; H. influenzae ATCC 49247; read-out: MIC
[8] = tested on: S. aureus UNT-146, MP-620, TP 506 (ermA); conditions: Staphylococcus aureus
E. coli ATCC 25922 = conditions: Escherichia coli
[9] = tested on: S. pyogenes UNT-014, MP-625 MacRes; conditions: Streptococcus pyogenes; S. pyogenes UNT-014, MP-625 MacRes; read-out: MIC
P. aeruginosa ATCC 27853 = conditions: Pseudomonas aeruginosa, ATCC27853
E. faecalis UNT-047 VRE = conditions: Enterococcus faecalis
[10] = tested on: S. pneumoniae TP 1579 (ermB + tet(M, O)); conditions: Streptococcus pneumoniae
S. pyogenes ATCC 19615 = conditions: Streptococcus pyogenes, ATCC19615; S. pyogenes ATCC 19615; read-out: MIC
K. pneumoniae UNT TEM-10 = conditions: Klebsiella pneumoniae, UNTTEM10
[11] = tested on: S. aureus MP-549 msr(a) USA 300; conditions: Staphylococcus aureus, USA300, S. aureus MP-549 msr(a) USA 300
[12] = tested on: S. aureus Micromyx USA 300; conditions: Staphylococcus aureus, USA300; S. aureus Micromyx USA 300; read-out: MIC
[13] = tested on: P. aeruginosa MMX 3476 Δmex; conditions: Pseudomonas aeruginosa
[14] = tested on: S. pneumoniae MMX 3031 cMefA; conditions: Streptococcus pneumoniae, MMX3031CMEFA
C. difficile BAA 1805 = conditions: Clostridioides difficile, BAA1805; C. difficile BAA 1805; read-out: MIC
[15] = tested on: E. faecalis MMX 847 Macrolide-Resistant; conditions: Enterococcus faecalis
[16] = tested on: E. coli MMX TolC parent strain; conditions: Escherichia coli
[17] = tested on: S. pyogenes MMX 946 Macrolide-Resistant; conditions: Streptococcus pyogenes
E. coli MMX 0121 ΔTolC = conditions: Escherichia coli
S. aureus MMX 3035 cErmA = conditions: Staphylococcus aureus, MMX3035CERMA
[18] = tested on: P. aeruginosa MMX Mex parent strain; conditions: Pseudomonas aeruginosa
[19] = tested on: S. pneumoniae MMX 3028 cErmB; conditions: Streptococcus pneumoniae, MMX3028CERMB; S. pneumoniae MMX 3028 cErmB; read-out: MIC
S. aureus BAA 977 iErmA = conditions: Staphylococcus aureus, BAA977
B. fragilis ATCC 25285 = conditions: Bacteroides fragilis, ATCC25285; B. fragilis ATCC 25285; read-out: MIC
[20] = S. pneumoniae TP 1537 (ermB + mefA), read-out: MIC
[21] = K. pneumoniae IHMA 658692, KPC-2, read-out: MIC
[22] = S. aureus UNT-120, MP-619, NRS22 (USA 600, GISA), read-out: MIC
[23] = S. aureus UNT96, NRS710, MP-618 (USA 100, Erythro >8), read-out: MIC
[24] = S. aureus BAA-1556 (USA 300), read-out: MIC
[25] = S. aureus UNT-146, MP-620, TP 506 (ermA), read-out: MIC
[26] = ATCC25922, E. coli ATCC 25922, read-out: MIC
[27] = P. aeruginosa ATCC 27853, read-out: MIC
[28] = E. faecalis UNT-047 VRE, read-out: MIC

## CSC1O[C@H]([C@H](NC(=O)[C@H]2NC[C@@H]3CCCCO[C@H]32)[C@H](C)Cl)C(O)[C@@H](O)[C@H]1O (some centres unmarked) [FSA-22091]
[1]
  MIC: < 0.0313 µg/mL
K. pneumoniae ATCC 10031
  MIC: 8 µg/mL (≈ 18.2 µM)
E. faecalis ATCC 29212; ATCC29212, read-out: MIC
  MIC: > 32 µg/mL
[2]
  MIC: < 0.0313 µg/mL
[3]; [20]
  MIC: 32 µg/mL
S. aureus ATCC 29213
  MIC: 0.125 µg/mL (≈ 0.285 µM)
[4]; [21]
  MIC: > 32 µg/mL
[5]; [22]
  MIC: > 32 µg/mL
S. pneumoniae ATCC 49619
  MIC: < 0.0313 µg/mL
[6]; [23]
  MIC: > 32 µg/mL
[7]; [24]
  MIC: > 32 µg/mL
E. coli GUEST131 (NDM-1)
  MIC: > 32 µg/mL
H. influenzae ATCC 49247
  MIC: 8 µg/mL (≈ 18.2 µM)
[8]; [25]
  MIC: > 32 µg/mL
E. coli ATCC 25922; [26]
  MIC: 32 µg/mL (≈ 72.9 µM)
[9]
  MIC: < 0.0313 µg/mL
P. aeruginosa ATCC 27853; [27]
  MIC: > 32 µg/mL
E. faecalis UNT-047 VRE; [28]
  MIC: > 32 µg/mL
[10]
  MIC: < 0.0313 µg/mL
S. pyogenes ATCC 19615
  MIC: < 0.0313 µg/mL

## CSC1O[C@H]([C@H](NC(=O)[C@H]2NC[C@@H]3CC=CCO[C@H]32)[C@H](C)Cl)C(O)[C@@H](O)[C@H]1O (some centres unmarked) [FSA-24035]
K. pneumoniae UNT TEM-10
  MIC: 32 µg/mL (≈ 73.2 µM)
[1]
  MIC: ≤ 0.0313 µg/mL
[11]
  MIC: 0.5 µg/mL (≈ 1.14 µM)
[12]
  MIC: 0.12 µg/mL (≈ 0.275 µM)
K. pneumoniae ATCC 10031
  MIC: 64 µg/mL (≈ 146 µM)
E. faecalis ATCC 29212; ATCC29212
  MIC: 16 µg/mL (≈ 36.6 µM)
[13]
  MIC: 16 µg/mL (≈ 36.6 µM)
[2]
  MIC: ≤ 0.0313 µg/mL
[3]
  MIC: 32 µg/mL (≈ 73.2 µM)
S. aureus ATCC 29213
  MIC: 0.12 µg/mL (≈ 0.275 µM)
[4]
  MIC: 32 µg/mL (≈ 73.2 µM)
[5]
  MIC: > 32 µg/mL
[14]
  MIC: ≤ 0.06 µg/mL
C. difficile BAA 1805
  MIC: 2 µg/mL (≈ 4.58 µM)
S. pneumoniae ATCC 49619
  MIC: ≤ 0.06 µg/mL
[6]
  MIC: > 32 µg/mL
[7]
  MIC: > 32 µg/mL
E. coli GUEST131 (NDM-1)
  MIC: > 32 µg/mL
[15]
  MIC: > 64 µg/mL
H. influenzae ATCC 49247
  MIC: 1 µg/mL (≈ 2.29 µM)
[8]
  MIC: > 32 µg/mL
[16]
  MIC: > 64 µg/mL
[17]
  MIC: 16 µg/mL (≈ 36.6 µM)
E. coli MMX 0121 ΔTolC
  MIC: 4 µg/mL (≈ 9.15 µM)
E. coli ATCC 25922; ATCC25922
  MIC: > 64 µg/mL
S. aureus MMX 3035 cErmA
  MIC: > 64 µg/mL
[18]
  MIC: > 64 µg/mL
[9]
  MIC: ≤ 0.0313 µg/mL
P. aeruginosa ATCC 27853
  MIC: > 64 µg/mL
E. faecalis UNT-047 VRE; VRE
  MIC: > 32 µg/mL
[10]
  MIC: ≤ 0.0313 µg/mL
S. pyogenes ATCC 19615
  MIC: ≤ 0.0313 µg/mL
[19]
  MIC: 64 µg/mL (≈ 146 µM)
S. aureus BAA 977 iErmA
  MIC: 0.25 µg/mL (≈ 0.572 µM)
B. fragilis ATCC 25285
  MIC: 8 µg/mL (≈ 18.3 µM)

## CSC1O[C@H]([C@H](NC(=O)[C@H]2NC[C@@H]3CC(F)(F)CCO[C@H]32)[C@H](C)Cl)C(O)[C@@H](O)[C@H]1O (some centres unmarked) [FSA-24036]
K. pneumoniae UNT TEM-10; K. pneumoniae UNT TEM-10, read-out: MIC
  MIC: > 32 µg/mL
[1]
  MIC: ≤ 0.0313 µg/mL
[12]
  MIC: 0.12 µg/mL (≈ 0.253 µM)
K. pneumoniae ATCC 10031
  MIC: 16 µg/mL (≈ 33.7 µM)
E. faecalis ATCC 29212; ATCC29212, read-out: MIC
  MIC: 4 µg/mL (≈ 8.42 µM)
[13]
  MIC: 32 µg/mL (≈ 67.4 µM)
[2]
  MIC: ≤ 0.0313 µg/mL
[3]; [20]
  MIC: > 32 µg/mL
S. aureus ATCC 29213
  MIC: 0.25 µg/mL (≈ 0.526 µM)
[4]; [21]
  MIC: > 32 µg/mL
[5]; [22]
  MIC: > 32 µg/mL
[14]
  MIC: ≤ 0.06 µg/mL
C. difficile BAA 1805
  MIC: 2 µg/mL (≈ 4.21 µM)
S. pneumoniae ATCC 49619
  MIC: ≤ 0.06 µg/mL
[6]; [23]
  MIC: > 32 µg/mL
[7]; [24]
  MIC: > 32 µg/mL
E. coli GUEST131 (NDM-1)
  MIC: > 32 µg/mL
[15]; E. faecalis MMX 847 Macrolide-Resistant (MacRes), read-out: MIC
  MIC: > 64 µg/mL
H. influenzae ATCC 49247
  MIC: 4 µg/mL (≈ 8.42 µM)
[8]; [25]
  MIC: > 32 µg/mL
[16]; E. coli MMX TolC parent strain, read-out: MIC
  MIC: > 64 µg/mL
[17]; S. pyogenes MMX 946 Macrolide-Resistant (MacRes), read-out: MIC
  MIC: 4 µg/mL (≈ 8.42 µM)
E. coli MMX 0121 ΔTolC
  MIC: 8 µg/mL (≈ 16.8 µM)
E. coli ATCC 25922; [26]
  MIC: > 64 µg/mL
S. aureus MMX 3035 cErmA; S. aureus MMX 3035 cErmA, read-out: MIC
  MIC: > 64 µg/mL
[18]; P. aeruginosa MMX Mex parent strain, read-out: MIC
  MIC: > 64 µg/mL
[9]
  MIC: ≤ 0.0313 µg/mL
P. aeruginosa ATCC 27853; [27]
  MIC: > 64 µg/mL
E. faecalis UNT-047 VRE; [28]
  MIC: > 32 µg/mL
[10]
  MIC: ≤ 0.0313 µg/mL
S. pyogenes ATCC 19615
  MIC: ≤ 0.0313 µg/mL
[19]
  MIC: 64 µg/mL (≈ 135 µM)
S. aureus BAA 977 iErmA
  MIC: 0.5 µg/mL (≈ 1.05 µM)
B. fragilis ATCC 25285
  MIC: 4 µg/mL (≈ 8.42 µM)
